Source: patent US20230312564A1, “AROMATIC RING-LACTAM COMPOUND, PREPARATION METHOD THEREFOR AND USE THEREOF” (SHANGHAI RINGENE BIOPHARMA CO., LTD., priority 2020, published 2023)
Where “and” joins values, the source holds several entries; their conditions need not be identical. Equal entries are not always repeated. Where two headings read alike, the source gives them in different places.

Columns and labels:
[1] = Liver microsomal metabolic stability, dog; assay type: in vitro ADME; conditions: 0.5 mg/mL microsomes, 1 μM compound, NADPH; for half-life at 1 μM: liver microsomes, read-out: Liver microsomal stability T1/2
Description: (§1) The reaction was stopped with tinidazole-containing acetonitrile at 0 min, 5 min, 10 min and 30 min, respectively. After vortexing for 10 min and centrifuging at 15,000 rmp for 10 min, 50 μL of the supernatant was injected into a 96-well plate. The metabolic stability of the compound was calculated by determining the relative reduction of the drug, calculated as half-life T1/2.

[2] = Liver microsomal metabolic stability, rat; assay type: in vitro ADME; conditions: 0.5 mg/mL microsomes, 1 μM compound, NADPH; for half-life at 1 μM: liver microsomes, read-out: Liver microsomal stability T1/2
Description: as §1

[3] = Liver microsomal metabolic stability, human; assay type: in vitro ADME; conditions: 0.5 mg/mL microsomes, 1 μM compound, NADPH; for half-life at 1 μM: liver microsomes, read-out: Liver microsomal stability T1/2
Description: as §1

Colo-205 cells = test: Colo-205 tumor cell proliferation, CCK-8, 72 hours; assay type: cell-based; conditions: for IC50: read-out: Colo-205 IC50; for cell proliferation inhibitory activity (in words): Colo-205
Description: 1. Test method: Colo-205 cells (ATCC) in logarithmic growth phase were inoculated into a 96-well culture plate at an appropriate density with 90 μL per well. After overnight culture, different concentrations of the compound were added and acted for 72 hours, and a solvent control group (negative control) was set. After the compound was acted on cells for 72 hours, the effect of the compound on cell proliferation was detected by the cell counting kit CCK-8 (Dojindo), and 10 μL of CCK-8 reagent was added to each well. After the plate was placed in a 37° C. incubator for 2 to 4 hours, a full-wavelength microplate reader SpectraMax 190 was adopted for obtaining the readings with a measured wavelength of 450 nm. […] The IC50 value was obtained by four-parameter regression with the software attached to the microplate reader.

ERK1/2 kinase = tested on: T1, ERK1/2 kinase; test: ERK1/2 kinase (Carna) inhibitory activity, Caliper mobility shift; assay type: biochemical; conditions: for IC50: read-out: ERK½ IC50
T1 construct: fused on or other part: Carna's ERK products carry a GST tag by vendor knowledge
Description: (1) Preparation of 1×Kinase buffer; (2) preparation of compound concentration gradient: the initial test concentration of the tested compound was 10 μM, which was 3-fold diluted to 10 concentrations, and a duplicate test was conducted, and then the tested compound was diluted in a 96 well plate to a 100-fold final concentration of 10 different concentrations of solution. […] Log (inhibitor) vs. response—Variable slope of the analysis software GraphPad Prism 5 was used to fit the dose-effect curve to obtain the IC50 value of each compound on the enzyme activity.
2. […] (A<10 nM, 10 nM≤B<200 nM, C≥200 nM)

[4] = Liver microsomal stability, comparisons in words across species; assay type: in vitro ADME
Description: as §1

[5] = tested on: Colo-205 transplanted tumor; test: Growth inhibition of nude mice Colo-205 transplanted tumor; assay type: in vivo; conditions: 50 mg/kg, qdx21, po
Description: The tumor tissue in the vigorous growth phase was cut into about 1.5 mm^3 and inoculated subcutaneously in the right axilla of nude mice under sterile conditions. The diameter of subcutaneous transplanted tumors in nude mice was measured with a vernier caliper, and the mice were randomly divided into groups when the average tumor volume reached about 130 mm^3. The embodiment compounds (injection water containing 1% Tween 80 were configured to a desired concentration for later use) were orally administered daily at a given dose for three consecutive weeks, and the solvent control group was administered with the same amount of solvent. During the whole test, the diameter of transplanted tumor was measured twice a week, and the mice were weighed at the same time. The calculation formula of tumor volume (TV) is expressed as TV=1/2×a×b^2, wherein a and b represent length and width, respectively. The relative tumor volume (RTV) was calculated according to the measurement results, and the calculation formula is RTV=Vt/V0, wherein V0 is the tumor volume measured when administered in separate cages (i.e., d0), and Vt is the tumor volume at the time of each measurement.

[6] = In-vivo pharmacokinetic parameters in mice; design: species or system Balb-c mice
Description: Six male SPF grade SD rats or Balb-c mice (Shanghai Sipple-Bikai Laboratory Animal) were divided into two groups, and the tested compounds were prepared into appropriate solutions or suspensions; one group was administered intravenously (with a dose of 1 mg/kg), and the other group was administered orally (with a dose of 5 mg/kg). Blood samples were collected by jugular vein puncture, and each sample was collected with a volume of about 0.2 mL/time point, and heparin sodium was used for anticoagulation. The time points of blood collection were listed below: 5, 15 and 30 min […], 1, 2, 4, 6, 8 and 24 h after administration; the collected blood samples were placed on ice and centrifuged to separate plasma (centrifugation conditions: 8,000 rpm, 6 min, 2 to 8° C.), and the collected plasma was stored at −80° C. before analysis. Plasma samples were analyzed by LC-MS/MS.
The pharmacokinetic parameters such as AUC0-t, AUC0-∞, MRT0-∞, Cmax, Tmax, T1/2 and Vd of the tested compounds and their mean values and standard deviations were calculated by the pharmacokinetic calculation software WinNonlin5.2 non-compartmental model according to the plasma concentration data. In addition, the bioavailability (F) was calculated by the following formula.
For samples with concentrations below the lower limit of quantitation, while pharmacokinetic parameter calculations were performed, samples sampled before Cmax was reached should be calculated as a zero value and samples sampled after Cmax was reached should be calculated as below limit of quantitation (BLQ).

[7] = rat, dog and human, compared with the comparative compound 1
[8] = male, Balb-c, mouse, plasma, IV, 1 mg/kg
[9] = male, Balb-c, mouse, plasma, PO, 5 mg/kg
[10] = Homo sapiens, COLO 205, 72 hours, CCK-8, class symbols
[11] = Homo sapiens, COLO 205, 72 hours, CCK-8, numeric values

Cc1cccc([C@@H](CO)NC(=O)[C@@H](C)N2Cc3ccc(-c4nc(NC5CCOCC5)ncc4Cl)cc3C2=O)c1 [Comparative compound 1, (R)-2-(6-(5-Chloro-2-((tetrahydro-2H-pyran-4-yl)amino)pyrimidin-4-yl)-1-oxoisoindolin-2-yl)-N—((S′)-2-hydroxy-1l-(in-tolyl)ethyl)propanamide, reference compound]
half-life at 1 μM [1]: 40 min | half-life at 1 μM [2]: 4 min | half-life at 1 μM [3]: 3 min

Cc1cccc([C@@H](CO)NC(=O)[C@@H](C)N2Cc3ncc(-c4nc(NC5CCOCC5)ncc4Cl)cc3C2=O)c1 [Comparative compound 3, (R)-2-(3-(5-Chloro-2-((tetrahydro-2H-pyran-4-yl)amino)pyrimidin-4-yl)-5-oxo-5,7-dihydro-6H-pyrrolo[3,4-b]pyridin-6-yl)-N—((S)-2-hydroxy-1-(m-tolyl)ethyl)propanamide, reference compound]
IC50 (Colo-205 cells; Homo sapiens, COLO 205, 72 h): 53.1 nM | half-life at 1 μM [1]: 201 min | half-life at 1 μM [2]: 6 min | half-life at 1 μM [3]: 6 min

Cc1cccc([C@@H](CO)NC(=O)[C@@H](C)N2Cc3c(F)cc(-c4nc(NC5CCOCC5)ncc4Cl)cc3C2=O)c1 [Comparative compound 4, (R)-2-(6-(5-Chloro-2-((tetrahydro-2H-pyran-4-yl)amino)pyrimidin-4-yl)-4-fluoro-1-oxoisoindolin-2-yl)-N—((S)-2-hydroxy-1-(m-tolyl)ethyl)propanamide, reference compound]
IC50 (Colo-205 cells; Homo sapiens, COLO 205, 72 h): 37.8 nM | half-life at 1 μM [1]: 60 min | half-life at 1 μM [2]: 3 min | half-life at 1 μM [3]: 3 min

Cc1cccc([C@@H](CO)NC(=O)[C@@H](C)N2Cc3ccc(-c4nc(NC5CCOCC5)ncc4Cl)c(F)c3C2=O)c1 [Embodiment 25]
enzyme inhibitory activity (in words) (ERK1/2 kinase): extremely strong enzyme inhibitory activity | IC50 (ERK1/2 kinase; numeric values): 0.7 nM | IC50 (Colo-205 cells; 72 hours, CCK-8, class symbols): < 100 nM | Liver microsomal stability T1/2 [1]: 60 min and 70 min | stability in liver microsomes (in words) ([4]; rat and human, compared with the comparative compounds 1 and 4): significantly improved | stability in liver microsomes (in words) [4, 7]: significantly improved | Liver microsomal stability T1/2 [2]: 10 min and 15 min | Liver microsomal stability T1/2 [3]: 18 min

Cc1cccc([C@@H](CO)NC(=O)[C@@H](C)N2Cc3ccc(-c4nc(NC5CCOCC5)ncc4F)c(F)c3C2=O)c1 [Embodiment 31, (R)-2-(7-Fluoro-6-(5-fluoro-2-((tetrahydro-2H-pyran-4-yl)amino)pyrimidin-4-yl)-1-oxoisoindolin-2-yl)-N—((S)-2-hydroxy-1-(m-tolyl)ethyl)propanamide]
T/C [5]: 27.9% | Initial weight (D0) ([5]; D0): 20.1 g | Terminal weight (D21) ([5]; D21): 21.7 g | Initial tumor volume ([5]; initial): 96 ± 21 mm^3 | Terminal tumor volume ([5]; terminal): 271 ± 128 mm^3 | F ([6]; PO 5 mg/kg vs IV 1 mg/kg): 52% | AUC(0-inf) [6, 8]: 0.407 µM·h | AUC(0-t) [6, 8]: 0.397 µM·h | MRT inf [6, 8]: 30 min | clearance [6, 8]: 75 mL/min/kg | half-life [6, 8]: 84 min | Vd ([6]; male, Balb-c, mouse, plasma, IV, 1 mg/kg, read-out: Vss): 2 L/kg | AUC(0-inf) [6, 9]: 1.06 µM·h | AUC(0-t) [6, 9]: 1.05 µM·h | Cmax [6, 9]: 1170 nM | Tmax [6, 9]: 18 min | half-life [6, 9]: 90 min

C[C@H](C(=O)N[C@H](CO)c1cccc(Cl)c1)N1Cc2ccc(-c3nc(NC4CCC(O)C(F)C4)ncc3F)c(F)c2C1=O (stereo partly drawn) [Embodiment 39]
enzyme inhibitory activity (in words) (ERK1/2 kinase): extremely strong enzyme inhibitory activity | IC50 (ERK1/2 kinase; class symbols): < 10 nM | IC50 (Colo-205 cells; [10]): 100 to 1000 nM

Cc1cc([C@@H](CO)NC(=O)[C@@H](C)N2Cc3ccc(-c4nc(NC5CCOCC5)ncc4F)c(F)c3C2=O)ccn1 [Embodiment 41]
IC50 (ERK1/2 kinase; numeric values): < 1 nM | IC50 (Colo-205 cells; [10]): < 100 nM

COc1cc(F)cc([C@@H](CO)NC(=O)[C@@H](C)N2Cc3ccc(-c4nc(NC5CC(F)(F)C5)ncc4F)c(F)c3C2=O)c1 [Embodiment 43]
IC50 (ERK1/2 kinase; class symbols): < 10 nM | IC50 (Colo-205 cells; [10]): < 100 nM

COc1cc(F)cc([C@@H](CO)NC(=O)[C@@H](C)N2Cc3ccc(-c4nc(Nc5ccnn5C)ncc4F)c(F)c3C2=O)c1 [Embodiment 45]
enzyme inhibitory activity (in words) (ERK1/2 kinase): extremely strong enzyme inhibitory activity | IC50 (ERK1/2 kinase; numeric values): < 1 nM | cell proliferation inhibitory activity (in words) (Colo-205 cells): strong cell proliferation inhibitory activity | IC50 (Colo-205 cells; [10]): < 100 nM

C[C@H](C(=O)NCc1cccc(N(C)C)n1)N1Cc2ccc(-c3nc(NC4CCOCC4)ncc3F)c(F)c2C1=O [Embodiment 47]
IC50 (ERK1/2 kinase; class symbols): < 10 nM | IC50 (Colo-205 cells; [10]): 100 to 1000 nM

C[C@H](C(=O)N[C@H](CO)c1cccc(Cl)c1)N1Cc2ccc(-c3nc(NC4CC[C@H](O)[C@@H](F)C4)ncc3F)c(F)c2C1=O (stereo partly drawn) [Embodiment 50]
IC50 (ERK1/2 kinase; class symbols): < 10 nM | IC50 (Colo-205 cells; [10]): < 100 nM

Cn1nccc1Nc1nccc(-c2ccn([C@H](CO)c3ccc(Cl)c(F)c3)c(=O)c2)n1 [GDC0994, reference compound]
IC50 (ERK1/2 kinase; class symbols): < 10 nM | IC50 (Colo-205 cells; [11]): 165 nM

Cn1nccc1Nc1nccc(-c2cc3c(s2)C(C)(C)N(CCN2CCOCC2)C3=O)n1 [LY3214996, reference compound]
IC50 (ERK1/2 kinase; class symbols): < 10 nM | IC50 (Colo-205 cells; [11]): 316 nM

C[C@H](C(=O)N[C@H](CO)c1cccc(Cl)c1)N1Cc2ccc(-c3ccnc(Nc4ccnn4C)c3)cc2C1=O [compound 2, (R)—N—((S)-1-(3-Chlorophenyl)-2-hydroxyethyl)-2-(6-(2-((1-methyl-1H-pyrazol-5-yl)amino)pyridin-4-yl)-1-oxoisoindolin-2-yl)propanamide, reference compound]
enzyme inhibitory activity (in words) (ERK1/2 kinase): extremely strong enzyme inhibitory activity | IC50 (Colo-205 cells; 72 hours, CCK-8, numeric values): 88.6 nM | cell proliferation inhibitory activity (in words) (Colo-205 cells): strong cell proliferation inhibitory activity | IC50 (Colo-205 cells; [11]): 354 nM | Liver microsomal stability T1/2 [1]: 403 min | stability in liver microsomes (in words) [4, 7]: significantly improved | stability in liver microsomes (in words) ([4]; rat, dog and human, compared with the comparative compounds 1 and 3): significantly improved | Liver microsomal stability T1/2 [2]: 18 min | Liver microsomal stability T1/2 [3]: 15 min

(R)-2-(6-(5-Chloro-2-((tetrahydro-2H-pyran-4-yl)amino)pyrimidin-4-yl)-4-fluoro-1-oxoisoindolin-2-yl)-N—((S)-2-hydroxy-1-(m-tolyl)ethyl)propanamide [Comparative compound 4, reference compound]
IC50 (ERK1/2 kinase; numeric values): 105 nM | IC50 (Colo-205 cells; 72 hours, CCK-8, class symbols): > 1000 nM
